Source: ChEMBL document CHEMBL1201862, “PubChem BioAssay data set” (2004)
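Values below derive from 48-hour exposures of cells grown in 96-well plates, with endpoints linearly interpolated between the two concentrations bracketing the appropriate inhibition level. The concentration for 50% growth inhibition is given as GI50.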 Active and inactive are the calls of the source. Cut-off read from the data, not from the text of the source: active = GI50 up to about 1.1 µM and inactive = higher.

Legend:
Experiment in all cases: NCI tumour cell line growth inhibition, 48 h
DU-145 = test system: DU-145
MOLT-4 = test system: MOLT-4
UACC-62 = test system: UACC-62
TK-10 = test system: TK-10
SR = test system: SR
Malme-3M = test system: Malme-3M
RXF 393 = test system: RXF 393
SF-295 = test system: SF-295
NCI/ADR-RES = test system: NCI/ADR-RES
COLO 205 = test system: COLO 205
SNB-19 = test system: SNB-19
LOX IMVI = test system: LOX IMVI
CAKI-1 = test system: CAKI-1
Hs-578T = test system: Hs-578T
EKVX = test system: EKVX
SK-MEL-28 = test system: SK-MEL-28
OVCAR-8 = test system: OVCAR-8
PC-3 = test system: PC-3
UACC-257 = test system: UACC-257
SK-MEL-5 = test system: SK-MEL-5
SF-268 = test system: SF-268
OVCAR-3 = test system: OVCAR-3
T47D = test system: T47D
U-251 = test system: U-251
SW-620 = test system: SW-620
NCI-H226 = test system: NCI-H226
OVCAR-4 = test system: OVCAR-4
HOP-62 = test system: HOP-62
SN12C = test system: SN12C
BT-549 = test system: BT-549
SNB-75 = test system: SNB-75
A549 = test system: A549
HCC 2998 = test system: HCC 2998
NCI-H522 = test system: NCI-H522
HT-29 = test system: HT-29
HL-60 = test system: HL-60
NCI-H460 = test system: NCI-H460
IGROV-1 = test system: IGROV-1
K562 = test system: K562
NCI-H23 = test system: NCI-H23
OVCAR-5 = test system: OVCAR-5
MDA-MB-231 = test system: MDA-MB-231
SK-MEL-2 = test system: SK-MEL-2
M14 = test system: M14
CCRF-CEM = test system: CCRF-CEM
UO-31 = test system: UO-31
KM12 = test system: KM12
SK-OV-3 = test system: SK-OV-3
HCT-116 = test system: HCT-116
HCT-15 = test system: HCT-15
MDA-N = test system: MDA-N
RPMI-8226 = test system: RPMI-8226
MDA-MB-435 = test system: MDA-MB-435
MCF7 = test system: MCF7
786-0 = test system: 786-0
SF-539 = test system: SF-539
HOP-92 = test system: HOP-92
A498 = test system: A498
ACHN = test system: ACHN

For `CC1(C)C=C(S(=O)(=O)c2ccccc2)Oc2ccccc2O1`, the GI50 (DU-145) was 91 µM (inactive), the GI50 (MOLT-4) was 25.2 µM (inactive) and the GI50 (UACC-62) was 38.4 µM (inactive). The GI50 (TK-10) was 6.7 µM (inactive), the GI50 (SR) was 41.9 µM (inactive) and the GI50 (Malme-3M) was 26.2 µM (inactive). The GI50 (RXF 393) was 34.8 µM (inactive), the GI50 (SF-295) was 33 µM (inactive) and the GI50 (NCI/ADR-RES) was 52.1 µM (inactive). For the same compound, the GI50 (COLO 205) was 18.8 µM (inactive), the GI50 (SNB-19) was 62.5 µM (inactive) and the GI50 (LOX IMVI) was 16.3 µM (inactive). For the same compound, the GI50 (CAKI-1) was 69.2 µM (inactive), the GI50 (Hs-578T) was 64.9 µM (inactive) and the GI50 (EKVX) was 23.1 µM (inactive). For the same compound, the GI50 (SK-MEL-28) was 41.7 µM (inactive), the GI50 (OVCAR-8) was 32.1 µM (inactive) and the GI50 (PC-3) was 27.9 µM (inactive). The GI50 (UACC-257) was 38 µM (inactive), the GI50 (SK-MEL-5) was 15.4 µM (inactive) and the GI50 (SF-268) was 61.1 µM (inactive). For the same compound, the GI50 (OVCAR-3) was 50.4 µM (inactive), the GI50 (T47D) was 19.8 µM (inactive) and the GI50 (U-251) was 45.4 µM (inactive). For the same compound, the GI50 (SW-620) was 75.9 µM (inactive), the GI50 (NCI-H226) was 46.6 µM (inactive) and the GI50 (OVCAR-4) was 37.4 µM (inactive). For the same compound, the GI50 (HOP-62) was > 100 µM (inactive), the GI50 (SN12C) was 64.9 µM (inactive) and the GI50 (BT-549) was 42.7 µM (inactive). For the same compound, the GI50 (SNB-75) was 16.7 µM (inactive), the GI50 (A549) was 41 µM (inactive) and the GI50 (HCC 2998) was 15.7 µM (inactive). For the same compound, the GI50 (NCI-H522) was 40.9 µM (inactive), the GI50 (HT-29) was 39.6 µM (inactive) and the GI50 (HL-60) was 20.5 µM (inactive). The GI50 (NCI-H460) was 35.2 µM (inactive), the GI50 (IGROV-1) was 44.2 µM (inactive) and the GI50 (K562) was 29.8 µM (inactive). For the same compound, the GI50 (NCI-H23) was 41.3 µM (inactive), the GI50 (OVCAR-5) was > 100 µM (inactive) and the GI50 (MDA-MB-231) was > 100 µM (inactive). The GI50 (SK-MEL-2) was 52.4 µM (inactive), the GI50 (M14) was 46 µM (inactive) and the GI50 (CCRF-CEM) was 40.1 µM (inactive). The GI50 (UO-31) was 20.7 µM (inactive), the GI50 (KM12) was 43.6 µM (inactive) and the GI50 (SK-OV-3) was 60.3 µM (inactive). For the same compound, the GI50 (HCT-116) was 29.5 µM (inactive), the GI50 (HCT-15) was 33.3 µM and the GI50 (MDA-N) was 35.7 µM (inactive). The GI50 (RPMI-8226) was 32.9 µM (inactive), the GI50 (MDA-MB-435) was 20.5 µM (inactive) and the GI50 (MCF7) was 43.5 µM (inactive). For the same compound, the GI50 (786-0) was 44.6 µM (inactive), the GI50 (SF-539) was 82.8 µM (inactive) and the GI50 (HOP-92) was 24.5 µM (inactive). The GI50 (A498) was 30.8 µM (inactive) and the GI50 (ACHN) was 34.8 µM (inactive).
